Source: BindingDB's records for PubMed 40136287 (CSIR-Institute of Microbial Technology)

Target: Metallo-beta-lactamase type 2 (Klebsiella pneumoniae, UniProt C7C422)
Test: Inhibition of NDM1 (unknown origin)

Metallo-beta-lactamase type 2, sequence (C7C422 whole entry): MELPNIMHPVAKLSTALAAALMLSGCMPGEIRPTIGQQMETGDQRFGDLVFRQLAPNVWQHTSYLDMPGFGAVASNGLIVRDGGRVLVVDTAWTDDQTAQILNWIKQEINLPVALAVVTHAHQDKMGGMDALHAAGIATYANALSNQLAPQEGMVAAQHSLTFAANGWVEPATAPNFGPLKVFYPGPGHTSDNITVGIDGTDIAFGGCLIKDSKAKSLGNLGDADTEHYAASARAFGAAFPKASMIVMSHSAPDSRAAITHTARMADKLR

## O=C(O)c1ccccn1
  IC50: 17.1 µM
